ChEMBL document CHEMBL1132704, “Design and synthesis of sulfonyl-substituted 4,5-diarylthiazoles as selective cyclooxygenase-2 inhibitors” (Bioorg Med Chem Lett, 1999)

How the values were obtained:
[1] = biological target: Prostaglandin G/H synthase 1 (Homo sapiens, UniProt P23219)
[2] = biological target: T1, Prostaglandin G/H synthase 2 (Homo sapiens, UniProt P35354)
T1 sequence (P35354 whole entry): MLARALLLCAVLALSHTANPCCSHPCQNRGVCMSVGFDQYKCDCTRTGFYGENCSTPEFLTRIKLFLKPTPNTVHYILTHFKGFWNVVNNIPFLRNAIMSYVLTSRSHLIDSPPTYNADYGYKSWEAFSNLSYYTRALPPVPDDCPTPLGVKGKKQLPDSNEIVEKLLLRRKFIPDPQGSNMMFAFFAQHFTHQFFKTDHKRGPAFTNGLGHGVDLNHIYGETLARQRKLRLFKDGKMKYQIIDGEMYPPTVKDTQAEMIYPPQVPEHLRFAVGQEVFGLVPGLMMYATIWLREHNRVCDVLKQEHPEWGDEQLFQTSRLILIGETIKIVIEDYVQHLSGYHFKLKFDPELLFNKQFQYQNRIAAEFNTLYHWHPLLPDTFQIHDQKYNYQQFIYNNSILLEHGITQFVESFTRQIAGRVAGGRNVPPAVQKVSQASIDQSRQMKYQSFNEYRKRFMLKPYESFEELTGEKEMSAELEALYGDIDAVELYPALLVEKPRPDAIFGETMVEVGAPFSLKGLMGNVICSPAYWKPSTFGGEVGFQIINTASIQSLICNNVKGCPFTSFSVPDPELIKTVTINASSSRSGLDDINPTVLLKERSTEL

Rattus norvegicus [3] = test: Compound was evaluated for the antiinflammatory activity in vivo in the carrageenan rat paw edema (CPE); assay type: functional
Rattus norvegicus [4] = test: Compound was evaluated for the percent inhibition of hyperalgesia at an effective dose of 20 mg/kg in rat; assay type: functional

Sequence of Prostaglandin G/H synthase 1 (P23219 whole entry): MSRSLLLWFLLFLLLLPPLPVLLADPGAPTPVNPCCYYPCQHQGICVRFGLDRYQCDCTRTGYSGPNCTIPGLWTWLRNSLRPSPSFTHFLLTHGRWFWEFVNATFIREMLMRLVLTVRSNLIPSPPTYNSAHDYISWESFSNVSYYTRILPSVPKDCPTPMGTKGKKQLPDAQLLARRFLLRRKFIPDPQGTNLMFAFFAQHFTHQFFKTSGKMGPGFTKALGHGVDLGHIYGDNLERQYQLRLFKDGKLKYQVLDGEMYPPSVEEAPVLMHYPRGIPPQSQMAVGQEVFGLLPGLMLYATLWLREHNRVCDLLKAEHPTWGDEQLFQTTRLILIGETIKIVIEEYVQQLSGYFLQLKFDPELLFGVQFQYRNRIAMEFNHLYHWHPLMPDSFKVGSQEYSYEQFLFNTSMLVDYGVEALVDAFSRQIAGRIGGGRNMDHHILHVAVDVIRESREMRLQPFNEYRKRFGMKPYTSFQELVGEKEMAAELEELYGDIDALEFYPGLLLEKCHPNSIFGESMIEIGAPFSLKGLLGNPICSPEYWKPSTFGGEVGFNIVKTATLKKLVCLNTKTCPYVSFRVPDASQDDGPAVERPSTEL

IC50 [1]	IC50 [2]	SMILES	ED50 (Rattus norvegicus [3])	inhibition in vivo at 20 mg/kg (Rattus norvegicus [4])
> 100 µM	0.54 µM	CS(=O)(=O)c1ccc(-c2nc(-c3ccccc3)sc2-c2ccc(F)cc2)cc1	–	–
> 100 µM	0.05 µM	CS(=O)(=O)c1ccc(-c2sc(-c3ccc(Cl)cc3)nc2-c2ccc(F)cc2)cc1	–	–
> 100 µM	0.021 µM	CS(=O)(=O)c1ccc(-c2sc(-c3cccs3)nc2-c2ccc(F)cc2)cc1	–	–
> 100 µM	0.35 µM	CS(=O)(=O)c1ccc(-c2sc(CC#N)nc2-c2ccc(F)cc2)cc1	–	–
> 100 µM	0.023 µM	CS(=O)(=O)c1ccc(-c2sc(C(F)(F)F)nc2-c2ccc(F)cc2)cc1	–	–
> 100 µM	0.016 µM	CS(=O)(=O)c1ccc(-c2sc(-c3ccccc3Cl)nc2-c2cccc(F)c2)cc1	–	–
> 100 µM	1.6 µM	CS(=O)(=O)c1ccc(-c2sc(-c3ccncc3)nc2-c2ccc(F)cc2)cc1	–	–
> 100 µM	–	CS(=O)(=O)c1ccc(-c2sc(-c3ccccc3Cl)nc2-c2ccsc2)cc1	–	–
19 µM	0.023 µM	CCc1nc(-c2ccc(F)cc2)c(-c2ccc(S(C)(=O)=O)cc2)s1	–	–
> 100 µM	0.12 µM	Cc1nc(-c2ccc(S(C)(=O)=O)cc2)c(-c2ccc(F)cc2)s1	–	–
> 100 µM	> 100 µM	CS(=O)(=O)c1ccc(-c2sc(-c3ccccc3Cl)nc2-c2cc(F)ccc2F)cc1	–	–
> 100 µM	–	CS(=O)(=O)c1ccc(-c2sc(-c3ccccc3Cl)nc2-c2cccs2)cc1	–	–
> 100 µM	0.01 µM	CS(=O)(=O)c1ccc(-c2sc(-c3ccccc3Cl)nc2-c2ccccc2)cc1	–	–
–	0.021 µM	CS(=O)(=O)c1ccc(-c2sc(-c3ccccc3Cl)nc2-c2ccc(F)cc2F)cc1	–	–
1.07 µM	0.006 µM	CS(=O)(=O)c1ccc(-c2nc(C(F)(F)F)sc2-c2ccc(F)cc2)cc1	–	–
> 100 µM	0.05 µM	CS(=O)(=O)c1ccc(-c2sc(-c3ccccc3Cl)nc2-c2ccc(F)cc2)cc1	20 mg/kg	27%
> 100 µM	> 30 µM	CS(=O)(=O)c1ccc(-c2sc(-c3ccccc3)nc2-c2ccc(F)cc2)cc1	–	–
> 100 µM	0.11 µM	CC(C)(C)c1nc(-c2ccc(F)cc2)c(-c2ccc(S(C)(=O)=O)cc2)s1	–	–
> 10 µM	0.27 µM	COc1ccc(-c2nc(-c3ccc(F)cc3)c(-c3ccc(S(C)(=O)=O)cc3)s2)cc1	–	–
> 10 µM	0.11 µM	Cc1nc(-c2ccc(F)cc2)c(-c2ccc(S(C)(=O)=O)cc2)s1	–	–
> 100 µM	0.61 µM	CCOC(=O)c1nc(-c2ccc(F)cc2)c(-c2ccc(S(C)(=O)=O)cc2)s1	–	–
> 1000 µM	0.52 µM	CS(=O)(=O)c1ccc(-c2sc(CCCc3ccccc3)nc2-c2ccc(F)cc2)cc1	–	–
> 10 µM	0.007 µM	CS(=O)(=O)c1ccc(-c2sc(CCCc3ccc(Br)cc3)nc2-c2ccc(F)cc2)cc1	–	–
> 100 µM	> 100 µM	CC(C)(C)c1ccc(-c2nc(-c3ccc(F)cc3)c(-c3ccc(S(C)(=O)=O)cc3)s2)cc1	–	–

SMILES	IC50 [1]	IC50 [2]	ED50 (Rattus norvegicus [3])	inhibition in vivo at 20 mg/kg (Rattus norvegicus [4])
CS(=O)(=O)c1ccc(-c2sc(-c3cccnc3)nc2-c2ccc(F)cc2)cc1	> 1000 µM	0.43 µM	–	–
CS(=O)(=O)c1ccc(-c2sc(-c3ccccc3Cl)nc2-c2ccccc2F)cc1	> 100 µM	0.01 µM	–	–
CS(=O)(=O)c1ccc(-c2sc(Cc3ccccc3)nc2-c2ccc(F)cc2)cc1	> 100 µM	0.018 µM	–	–
CS(=O)(=O)c1ccc(-c2sc(CCc3ccccc3)nc2-c2ccc(F)cc2)cc1	> 100 µM	0.032 µM	–	–
